Laboratory results published in patent publication US20140288074A1, “FUNGICIDAL PYRAZOLES” (E I DU PONT DE NEMOURS AND COMPANY, priority 2013, published 2014).

Key:
Assay type in all cases: in vivo
Septoria nodorum = assay: Test C: preventive spray on wheat seedlings, Septoria glume blotch, visual disease rating; settings: 200 ppm test suspension, Septoria nodorum inoculated the day after spraying; for pest or weed control at 200 ppm: Parastagonospora nodorum, 264 h
Method: General protocol for preparing test suspensions for Tests A-G: the test compounds were first dissolved in acetone in an amount equal to 3% of the final volume and then suspended at the desired concentration (in ppm) in acetone and purified water (50/50 mix by volume) containing 250 ppm of the surfactant Trem® 014 (polyhydric alcohol esters). The resulting test suspensions were then used in Tests A-G. Each test was conducted in triplicate, and the results were averaged. Spraying a 200 ppm test suspension to the point of run-off on the test plants was the equivalent of a rate of 800 g/ha. Unless otherwise indicated, the rating values indicate a 200 ppm test suspension was used. (An asterisk “*” next to the rating value indicates a 40 ppm test suspension was used.) The test suspension was sprayed to the point of run-off on wheat seedlings. The following day the seedlings were inoculated with a spore suspension of Septoria nodorum (the causal agent of Septoria glume blotch) and incubated in a saturated atmosphere at 24° C. for 48 h, and then moved to a growth chamber at 20° C. for 9 days, after which time visual disease ratings were made. Results for Tests A-G are given in Table A. In the Table, a rating of 100 indicates 100% disease control and a rating of 0 indicates no disease control (relative to the controls). A hyphen (-) indicates no test results.

Septoria tritici = assay: Test D: preventive spray on wheat seedlings, wheat leaf blotch, visual disease rating; settings: 200 ppm test suspension, Septoria tritici inoculated the day after spraying; for pest or weed control at 200 ppm: Zymoseptoria tritici, 504 h
Method: General protocol for preparing test suspensions for Tests A-G: the test compounds were first dissolved in acetone in an amount equal to 3% of the final volume and then suspended at the desired concentration (in ppm) in acetone and purified water (50/50 mix by volume) containing 250 ppm of the surfactant Trem® 014 (polyhydric alcohol esters). The resulting test suspensions were then used in Tests A-G. Each test was conducted in triplicate, and the results were averaged. Spraying a 200 ppm test suspension to the point of run-off on the test plants was the equivalent of a rate of 800 g/ha. Unless otherwise indicated, the rating values indicate a 200 ppm test suspension was used. (An asterisk “*” next to the rating value indicates a 40 ppm test suspension was used.) The test suspension was sprayed to the point of run-off on wheat seedlings. The following day the seedlings were inoculated with a spore suspension of Septoria tritici (the causal agent of wheat leaf blotch) and incubated in saturated atmosphere at 24° C. for 48 h. and then the seedlings were moved to a growth chamber at 20° C. for 19 additional days, after which time visual disease ratings were made. Results for Tests A-G are given in Table A. In the Table, a rating of 100 indicates 100% disease control and a rating of 0 indicates no disease control (relative to the controls). A hyphen (-) indicates no test results.

[1] = system: Puccinia recondita f. sp. tritici; assay: Test F: preventive spray on wheat seedlings, wheat leaf rust, visual disease rating; settings: 200 ppm test suspension, Puccinia recondita f. sp. tritici inoculated the day after spraying; for pest or weed control at 200 ppm: 168 h
Method: General protocol for preparing test suspensions for Tests A-G: the test compounds were first dissolved in acetone in an amount equal to 3% of the final volume and then suspended at the desired concentration (in ppm) in acetone and purified water (50/50 mix by volume) containing 250 ppm of the surfactant Trem® 014 (polyhydric alcohol esters). The resulting test suspensions were then used in Tests A-G. Each test was conducted in triplicate, and the results were averaged. Spraying a 200 ppm test suspension to the point of run-off on the test plants was the equivalent of a rate of 800 g/ha. Unless otherwise indicated, the rating values indicate a 200 ppm test suspension was used. (An asterisk “*” next to the rating value indicates a 40 ppm test suspension was used.) The test suspension was sprayed to the point of run-off on wheat seedlings. The following day the seedlings were inoculated with a spore suspension of Puccinia recondita f. sp. tritici (the causal agent of wheat leaf rust) and incubated in a saturated atmosphere at 20° C. for 24 h, and then moved to a growth chamber at 20° C. for 6 days, after which time visual disease ratings were made. Results for Tests A-G are given in Table A. In the Table, a rating of 100 indicates 100% disease control and a rating of 0 indicates no disease control (relative to the controls). A hyphen (-) indicates no test results.

[2] = system: Blumeria graminis f. sp. tritici; assay: Test G: preventive spray on wheat seedlings, wheat powdery mildew, visual disease rating;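 as to all read-outs here: rated 8 days after spore dust inoculation at 20 °C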; settings: 200 ppm test suspension, Blumeria graminis f. sp. tritici inoculated the day after spraying; for pest or weed control at 200 ppm: 192 h
Method: General protocol for preparing test suspensions for Tests A-G: the test compounds were first dissolved in acetone in an amount equal to 3% of the final volume and then suspended at the desired concentration (in ppm) in acetone and purified water (50/50 mix by volume) containing 250 ppm of the surfactant Trem® 014 (polyhydric alcohol esters). The resulting test suspensions were then used in Tests A-G. Each test was conducted in triplicate, and the results were averaged. Spraying a 200 ppm test suspension to the point of run-off on the test plants was the equivalent of a rate of 800 g/ha. Unless otherwise indicated, the rating values indicate a 200 ppm test suspension was used. (An asterisk “*” next to the rating value indicates a 40 ppm test suspension was used.) The test suspension was sprayed to the point of run-off on wheat seedlings. The following day the seedlings were inoculated with a spore dust of Blumeria graminis f. sp. tritici (also known as Erysiphe graminis f. sp. tritici, the causal agent of wheat powdery mildew) and incubated in a growth chamber at 20° C. for 8 days, after which time visual disease ratings were made. Results for Tests A-G are given in Table A. In the Table, a rating of 100 indicates 100% disease control and a rating of 0 indicates no disease control (relative to the controls). A hyphen (-) indicates no test results.

Botrytis cinerea = assay: Test A: preventive spray on tomato seedlings, tomato Botrytis, visual disease rating; settings: 200 ppm test suspension, Botrytis cinerea inoculated the day after spraying; for pest or weed control at 200 ppm: 120 h
Method: General protocol for preparing test suspensions for Tests A-G: the test compounds were first dissolved in acetone in an amount equal to 3% of the final volume and then suspended at the desired concentration (in ppm) in acetone and purified water (50/50 mix by volume) containing 250 ppm of the surfactant Trem® 014 (polyhydric alcohol esters). The resulting test suspensions were then used in Tests A-G. Each test was conducted in triplicate, and the results were averaged. Spraying a 200 ppm test suspension to the point of run-off on the test plants was the equivalent of a rate of 800 g/ha. Unless otherwise indicated, the rating values indicate a 200 ppm test suspension was used. (An asterisk “*” next to the rating value indicates a 40 ppm test suspension was used.) The test suspension was sprayed to the point of run-off on tomato seedlings. The following day the seedlings were inoculated with a spore suspension of Botrytis cinerea (the causal agent of tomato Botrytis) and incubated in saturated atmosphere at 20° C. for 48 h, and then moved to a growth chamber at 24° C. for 3 additional days, after which time visual disease ratings were made. Results for Tests A-G are given in Table A. In the Table, a rating of 100 indicates 100% disease control and a rating of 0 indicates no disease control (relative to the controls). A hyphen (-) indicates no test results.

| Compound | Test C rating (disease control) (Septoria nodorum) | Test D rating (disease control) (Septoria tritici) | Test F rating (disease control) [1] | Test G rating (disease control) [2] | Test A rating (disease control) (Botrytis cinerea) | pest or weed control at 200 ppm (Septoria nodorum) | pest or weed control at 200 ppm (Septoria tritici) | pest or weed control at 200 ppm [1] | pest or weed control at 200 ppm [2] | pest or weed control at 200 ppm (Botrytis cinerea) |
| --- | --- | --- | --- | --- | --- | --- | --- | --- | --- | --- |
| CCCCNc1c(-c2c(F)cc(F)cc2F)c(C)nn1C [Compound 47] | 95% | 57% | 98% | 0% | 30% |  |  |  |  |  |
| CSC(c1c(-c2c(F)cccc2Cl)c(C)nn1C)C(C)C (stereo not drawn) [Compound 26, 4-(2-chloro-6-fluorophenyl)-1,3-dimethyl-5-[2-methyl-1-(methylthio)propyl]-1H-pyrazole] |  |  |  |  |  | 99% | 3% | 98% | 0% | 0% |
| 4-(2-chloro-6-fluorophenyl)-N,1,3-trimethyl-α-(1-methylpropyl)-1H-pyrazole-5-methanamine [Compound 34] | 99% | 12% | 90% | 0% | 0% |  |  |  |  |  |
| Cc1nn(C)c(N2CCCCC2)c1-c1ccc(F)cc1Cl [Compound 41] | 0% | 88% | 44% | 0% | 99% |  |  |  |  |  |
| COCCNc1c(-c2ccc(F)cc2Br)c(C)nn1C [Compound 45] | 77% | 0% | 68% | 0% | 9% |  |  |  |  |  |
| CCCCN(CCCC)c1c(-c2ccc(F)cc2Br)c(C)nn1C [Compound 37] | 99% | 0% | 99% | 0% | 0% |  |  |  |  |  |
| Cc1nn(C)c(N2CCCCC2C)c1-c1ccc(F)cc1Cl (stereo not drawn) [Compound 43] | 0% | 36% | 19% | 43% | 73% |  |  |  |  |  |
| Cc1nn(C)c(NCC(C)C)c1-c1c(F)cc(F)cc1F [Compound 53] | 100% |  | 100% | 81% | 95% |  |  |  |  |  |
| Cc1nn(C)c(OC(C)C)c1-c1ccc(F)cc1Cl [Compound 31] | 0% | 0% | 22% | 0% | 0% |  |  |  |  |  |
| Cc1nn(C)c(N2CCOCC2)c1-c1ccc(F)cc1Cl [Compound 40, 4-[4-(2-chloro-4-fluorophenyl)-1,3-dimethyl-1H-pyrazol-5-yl]morpholine] |  |  |  |  |  | 0% | 100% | 99% | 94% | 100% |
| Cc1nn(C)c(NCC(C)C)c1-c1ccc(F)cc1Br [Compound 44] | 59% | 0% | 90% | 0% | 0% |  |  |  |  |  |
| Cc1nn(C)c(NCC2CC2)c1-c1ccc(F)cc1Br [Compound 48] | 68% | 71% | 89% | 0% | 98% |  |  |  |  |  |
| Cc1nn(C)c(C(O)C(C)C)c1-c1c(F)cccc1Cl (stereo not drawn) [Compound 24, 4-(2-chloro-6-fluorophenyl)-1,3-dimethyl-α-(1-methylethyl)-1H-pyrazole-5-methanol] |  |  |  |  |  | 98% | 91% | 99% | 97% | 99% |
| Cc1nn(C)c(OCC2CC2)c1-c1ccc(F)cc1Cl [Compound 27, 4-(2-chloro-4-fluorophenyl)-5-(cyclopropylmethoxy)-1,3-dimethyl-1H-pyrazole] |  |  |  |  |  | 69% | 100% | 9% | 0% | 99% |
| COCCN(CCOC)c1c(-c2c(F)cc(F)cc2F)c(C)nn1C [Compound 51] | 100% |  | 99% | 55% | 82% |  |  |  |  |  |
| CCC(C)COc1c(-c2ccc(F)cc2Br)c(C)nn1C (stereo not drawn) [Compound 23, 4-(2-bromo-4-fluorophenyl)-1,3-dimethyl-5-(2-methylbutoxy)-1H-pyrazole] |  |  |  |  |  | 0% | 95% | 9% | 0% | 70% |
| Cc1nn(C)c(NC(C)C)c1-c1ccc(F)cc1Br [Compound 38] | 100% | 46% | 100% | 0% | 100% |  |  |  |  |  |
| CCC(C)C(SC)c1c(-c2c(F)cccc2Cl)c(C)nn1C (stereo not drawn) [Compound 35, 4-(2-chloro-6-fluorophenyl)-1,3-dimethyl-5-[2-methyl-1-(methylthio)butyl]-1H-pyrazole] |  |  |  |  |  | 0% |  | 0% | 69% | 0% |
